Measurements reported in the NIST ThermoML archive (doi:10.1016/j.tca.2006.10.005).
Numbers after ± are expanded uncertainties.

Test: molar heat capacity at constant pressure
Conditions: 101.33 kPa, Crystal

O=C([O-])[O-].[Li+].[Li+] [lithium carbonate]
Conditions	molar heat capacity at constant pressure [J/K/mol]
303.15 K	99.89 ± 0.63
323.15 K	100.98 ± 0.85
343.15 K	107.69 ± 1
363.15 K	111.21 ± 1.1
383.15 K	115.61 ± 1.3
403.15 K	116.88 ± 2.4
443.15 K	120.05 ± 3.7
483.15 K	129.08 ± 1.9
533.15 K	132.77 ± 2.9
563.15 K	137.29 ± 3.1
